Measurements as given in patent US20240368158A1, “KINASE MODULATORS, COMPOSITIONS COMPRISING THE KINASE MODULATOR, AND METHODS OF USING THE SAME” (BIOFRONT LTD, priority 2021, published 2024).
pIC50: −log10 of the molar value.

Assays:
HPK1 = biological target: T1, HPK1 (Homo sapiens, UniProt Q92918); test: HPK1 enzyme inhibition assay (ADP-Glo); assay type: biochemical; settings: MBP substrate, ATP
T1 construct: purchased Signal Chem M23-11G-10
T1 sequence (Q92918 1-346 limits assumed): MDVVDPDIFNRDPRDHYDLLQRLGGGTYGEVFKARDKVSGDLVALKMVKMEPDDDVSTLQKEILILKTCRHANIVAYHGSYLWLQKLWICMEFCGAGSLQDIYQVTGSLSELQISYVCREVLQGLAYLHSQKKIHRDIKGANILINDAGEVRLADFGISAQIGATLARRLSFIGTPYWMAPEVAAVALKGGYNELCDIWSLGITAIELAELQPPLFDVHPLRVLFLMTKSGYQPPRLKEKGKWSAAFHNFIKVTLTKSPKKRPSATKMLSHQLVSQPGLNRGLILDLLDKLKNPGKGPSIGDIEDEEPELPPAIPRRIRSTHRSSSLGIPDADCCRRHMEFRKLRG
Experimental: The compound was dissolved in 100% DMSO at the concentration of 10 mM. The HPK1 protein was purchased from Signal Chem (M23-11G-10). 2.5 μL per well of 2×HPK1 protein was added to assay plate containing the test compound, centrifuged at 1500 rpm for 1 minute, and then incubated at 25° C. for 60 minutes. MBP protein was purchased from Signal Chem (M42-51N) and ATP was purchased from Promega (V9102). The two were added 2.5 μL per well mixture of 2×MBP (0.2 ug/ul) and ATP (20 μM), centrifuged at 1500 rpm for 1 minute, then incubated at 25° C. for 60 minutes. Then added 5 μL of ADP-Glo from Promega (V9102) to the assay plate and depleted the unconsumed ATP for 60 minutes. Then centrifuged at 1500 rpm for 1 minute and incubated at 25° C. for 60 minutes. Finally, 10 μL of the kinase assay reagent from Promega (V9102) was added to the assay plate to convert ADP to ATP, centrifuged at 1500 rpm for 1 minute, incubate at 25° C. for 40 minutes. After 40 minutes incubation, the […] was determined. Based on the results, the IC50 value of the compound was calculated.

[1] = test system: HPK1 p-SLP-76 in Jurkat cells; test: HPK1 p-SLP-76 inhibition assay in Jurkat cells (HTRF); assay type: cell-based; settings: Homo sapiens, 4 h compound, anti-CD3 stimulation 20 min
Experimental: Before compound treatment, Jurkat cells were starved in PRMI-1640 medium supplemented with 0.5% FBS overnight. The cell density was adjusted to 1*10^7 cells/mL in assay medium (RPMI-1640 no phenol red with 0.5% FBS) and 16 uL cell suspension was transferred per well to a 384-well plate (Corning #3765). […] of test compound was prepared in assay medium and 4 uL was added per well to the 384-well plate. The plate was then incubated at 37° C., 5% CO2 for 4 h. Jurkat cells in 384-well plate were stimulated with anti-CD3 (BD Biosciences #555329, final conc. is 10 ug/mL) for 20 min at 37° C., 5% CO2 by adding 4 uL 6× antibody solution per well. Phospho-SLP76 HTRF kit was purchased from Cisbio (63ADK076PEH). 8 uL 4× Lysis Buffer was added to 384-well plate after anti-CD3 stimulation. The plate was centrifuged at 1,000 rpm for 1 min, shaken at 250 rpm for 60 min and centrifuged again at 1,000 rpm for 5 min. Afterwards the cell lysates were transferred to the assay plate (Greiner #784075) with 16 uL per well. 4 uL detection antibody mix per well prepared in Detection Buffer was added to the assay plate, followed by centrifugation at 1,000 rpm for 1 min and incubation at 25° C. overnight. The fluorescence emission at two different wavelengths (665 nm and 620 nm) was read by an HTRF compatible microplate reader and the IC50 value of the compound was calculated.

| SMILES | pIC50 (HPK1) | pIC50 [1] |
| --- | --- | --- |
| O=C1CNCCN1c1nc(-c2cnc3[nH]cc(C4CC4)c3c2Cl)cs1 [Example 11, 1-(4-(4-chloro-3-cyclopropyl-1H-pyrrolo[2,3-b]pyridin-5-yl)thiazol-2-yl)piperazin-2-one] | 7.00 to 8.00 | 5.00 to 5.52 |
| COCCN1CCN(c2cccc(-c3cnc4[nH]cc(CC(F)F)c4c3Cl)c2)C(=O)C1 [Example 37, 1-(3-(4-chloro-3-(2,2-difluoroethyl)-1H-pyrrolo[2,3-b]pyridin-5-yl)phenyl)-4-(2-methoxyethyl)piperazin-2-one] | 7.00 to 8.00 | 5.52 to 6.52 |
| CCc1c[nH]c2ncc(-c3cccc(N4CCN(C(=O)CC56CC7CC(CC(C7)C5)C6)CC4=O)c3)c(Cl)c12 [Example 33, 4-(2-((1s,3s)-adamantan-1-yl)acetyl)-1-(3-(4-chloro-3-ethyl-1H-pyrrolo[2,3-b]pyridin-5-yl)phenyl)piperazin-2-one] | 7.00 to 8.00 | 5.00 to 5.52 |
| COCCN1CCN(c2cccc(-c3cnc4[nH]cc(C5CC5)c4c3Cl)c2)C(=O)C1 [Example 39, 1-(3-(4-chloro-3-cyclopropyl-1H-pyrrolo[2,3-b]pyridin-5-yl)phenyl)-4-(2-methoxyethyl)piperazin-2-one] | ≥ 8.00 | 5.52 to 6.52 |
| CCc1c[nH]c2ncc(-c3cccc(N4CCN(CCOC)CC4=O)c3)c(Cl)c12 [Example 28, 1-(3-(4-chloro-3-ethyl-1H-pyrrolo[2,3-b]pyridin-5-yl)phenyl)-4-(2-methoxyethyl)piperazin-2-one] | ≥ 8.00 | 5.52 to 6.52 |
| COC(=O)c1c[nH]c2ncc(-c3cccc(N4CCNCC4=O)c3)c(Cl)c12 [Example 2, Methyl 4-chloro-5-(3-(2-oxopiperazin-1-yl)phenyl)-1H-pyrrolo[2,3-b]pyridine-3-carboxylate] | 6.00 to 7.00 | < 5.00 |
| O=C1CNCCN1c1cccc(-c2cnc3[nH]cc(C4CC4)c3c2Cl)c1 [Example 4, 1-(3-(4-chloro-3-cyclopropyl-1H-pyrrolo[2,3-b]pyridin-5-yl)phenyl) piperazin-2-one] | ≥ 8.00 | 5.52 to 6.52 |
| CN(C)CC(=O)N1CCN(c2cccc(-c3cnc4[nH]cc(C#Cc5cccnc5)c4c3Cl)c2)C(=O)C1 [Example 30, 1-(3-(4-chloro-3-(pyridin-3-ylethynyl)-1H-pyrrolo[2,3-b]pyridin-5-yl)phenyl)-4-(dimethylglycyl)piperazin-2-one] | 7.00 to 8.00 | 5.52 to 6.52 |
| O=C1CNCCN1c1cncc(-c2cnc3[nH]cc(C4CC4)c3c2Cl)c1 [Example 19, 1-(5-(4-chloro-3-cyclopropyl-1H-pyrrolo[2,3-b]pyridin-5-yl)pyridin-3-yl)piperazin-2-one] | 6.00 to 7.00 | < 5.00 |
| CCc1c[nH]c2ncc(-c3cc(N4CCNCC4=O)ccc3CO)cc12 [Example 21, 1-(3-(3-ethyl-1H-pyrrolo[2,3-b]pyridin-5-yl)-4-(hydroxymethyl)phenyl)piperazin-2-one] | < 6.00 | < 5.00 |
| CCc1c[nH]c2ncc(-c3cccc(N4CCN(C(=O)CO[C@@H]5O[C@H](CO)[C@@H](O)[C@H](O)[C@H]5O)CC4=O)c3)c(Cl)c12 [Example 49, 1-(3-(4-chloro-3-ethyl-1H-pyrrolo[2,3-b]pyridin-5-yl)phenyl)-4-(2-(((2R,3R,4S,5S,6R)-3,4,5-trihydroxy-6-(hydroxymethyl)tetrahydro-2H-pyran-2-yl)oxy)acetyl)piperazin-2-one] | ≥ 8.00 | < 5.00 |
| CC1CN(CCCS(=O)(=O)N2CCN(c3cccc(-c4cnc5[nH]cc(C6CC6)c5c4Cl)c3)C(=O)C2)C1 [Example 57, 1-(3-(4-chloro-3-cyclopropyl-1H-pyrrolo[2,3-b]pyridin-5-yl)phenyl)-4-((3-(3-methylazetidin-1-yl)propyl)sulfonyl)piperazin-2-one] | ≥ 8.00 | 5.52 to 6.52 |
| Cn1cnc(C#Cc2c[nH]c3ncc(-c4cccc(N5CCNCC5=O)c4)c(Cl)c23)n1 [Example 14, 1-(3-(4-chloro-3-((1-methyl-1H-1,2,4-triazol-3-yl)ethynyl)-1H-pyrrolo[2,3-b]pyridin-5-yl)phenyl)piperazin-2-one] | 7.00 to 8.00 | < 5.00 |
| COCCS(=O)(=O)N1CCN(c2cccc(-c3cnc4[nH]cc(CC(F)F)c4c3Cl)c2)C(=O)C1 [Example 62, 1-(3-(4-chloro-3-(2,2-difluoroethyl)-1H-pyrrolo[2,3-b]pyridin-5-yl)phenyl)-4-((2-methoxyethyl)sulfonyl)piperazin-2-one] | ≥ 8.00 | 5.52 to 6.52 |
| CCc1c[nH]c2ncc(-c3cc(N4CCNCC4=O)ccc3CNC)cc12 [Example 41, 1-(3-(3-ethyl-1H-pyrrolo[2,3-b]pyridin-5-yl)-4-((methylamino)methyl)phenyl)piperazin-2-one] | < 6.00 | < 5.00 |
| CCc1c[nH]c2ncc(-c3cccc(N4CCCC(CO)C4=O)c3)c(Cl)c12 (racemic) [Example 22, 1-(3-(4-chloro-3-ethyl-1H-pyrrolo[2,3-b]pyridin-5-yl)phenyl)-3-(hydroxymethyl)piperidin-2-one] | ≥ 8.00 | 5.52 to 6.52 |
| CS(=O)(=O)N1CCN(c2cccc(-c3cnc4[nH]cc(CC(F)F)c4c3Cl)n2)C(=O)C1 [Example 61, 1-(6-(4-chloro-3-(2,2-difluoroethyl)-1H-pyrrolo[2,3-b]pyridin-5-yl)pyridin-2-yl)-4-(methylsulfonyl)piperazin-2-one] | ≥ 8.00 | 5.52 to 6.52 |
| COCC(=O)N1CCN(c2cccc(-c3cnc4[nH]cc(C#Cc5ncn(C)n5)c4c3Cl)c2)C(=O)C1 [Example 36, 1-(3-(4-chloro-3-((1-methyl-1H-1,2,4-triazol-3-yl)ethynyl)-1H-pyrrolo[2,3-b]pyridin-5-yl)phenyl)-4-(2-methoxyacetyl)piperazin-2-one] | 7.00 to 8.00 | < 5.00 |
| CCc1c[nH]c2ncc(-c3cccc(N4CCN(C(=O)CN5CCOCC5)CC4=O)c3)c(Cl)c12 [Example 26, 1-(3-(4-chloro-3-ethyl-1H-pyrrolo[2,3-b]pyridin-5-yl)phenyl)-4-(2-morpholinoacetyl)piperazin-2-one] | ≥ 8.00 | 5.52 to 6.52 |
| CCc1c[nH]c2ncc(-c3cccc(N4CCN(C(=O)OC)CC4=O)c3)c(Cl)c12 [Example 27, Methyl 4-(3-(4-chloro-3-ethyl-1H-pyrrolo[2,3-b]pyridin-5-yl)phenyl)-3-oxopiperazine-1-carboxylate] | ≥ 8.00 | ≥ 6.52 |
| CCc1c[nH]c2ncc(-c3cccc(N4CCN(C(=O)CCCNC(=O)CC56CC7CC(CC(C7)C5)C6)CC4=O)c3)c(Cl)c12 [Example 34, 2-((3r,5r,7r)-adamantan-1-yl)-N-(4-(4-(3-(4-chloro-3-ethyl-1H-pyrrolo[2,3-b]pyridin-5-yl)phenyl)-3-oxopiperazin-1-yl)-4-oxobutyl)acetamide] | 7.00 to 8.00 | 5.00 to 5.52 |
| O=C1CNCCN1c1cccc(-c2cnc3[nH]cc(CC(F)F)c3c2Cl)n1 [Example 16, 1-(6-(4-chloro-3-(2,2-difluoroethyl)-1H-pyrrolo[2,3-b]pyridin-5-yl)pyridin-2-yl)piperazin-2-one] | 7.00 to 8.00 | 5.52 to 6.52 |
| Cc1ccc(C#Cc2c[nH]c3ncc(-c4cccc(N5CCNCC5=O)c4)c(Cl)c23)cn1 [Example 13, 1-(3-(4-chloro-3-((6-methylpyridin-3-yl)ethynyl)-1H-pyrrolo[2,3-b]pyridin-5-yl)phenyl)piperazin-2-one] | 7.00 to 8.00 | 5.00 to 5.52 |
| COCCS(=O)(=O)N1CCN(c2cccc(-c3cnc4[nH]cc(C5CC5)c4c3Cl)c2)C(=O)C1 [Example 54, 1-(3-(4-chloro-3-cyclopropyl-1H-pyrrolo[2,3-b]pyridin-5-yl)phenyl)-4-((2-methoxyethyl)sulfonyl)piperazin-2-one] | ≥ 8.00 | 5.52 to 6.52 |
